Data reported in US20230085307A1, “PYRIDAZINONE COMPOUND AND HERBICIDE” (NISSAN CHEMICAL CORPORATION, priority 2019, published 2023).

Columns and labels:
late watergrass = assay: Test Example 1: herbicidal activity, application before weed generation under submerged conditions (Table 16, symbol A); format: in vivo, late watergrass (Echinochloa oryzicola); settings: 320 g/ha applied herbicide
Method in brief: (§1)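 Emulsion formulation, water-diluted to set dose, was put onto the flooded surface (4 cm depth, alluvial soil) the same day weeds were sown and 2.5-leaf rice transplanted. After 3 weeks at 25-30 °C under glass, each species was rated 0 (≤5% kill) to 5 (≥90% kill).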

Japanese bulrush = assay: Test Example 1: herbicidal activity, application before weed generation under submerged conditions (Table 16, symbol B); format: in vivo, Japanese bulrush (Schoenoplectus juncoides); settings: 320 g/ha applied herbicide
Method in brief: as §1

oval-leafed pondweed = assay: Test Example 1: herbicidal activity, application before weed generation under submerged conditions (Table 16, symbol C); format: in vivo, oval-leafed pondweed (Monochoria vaginalis); settings: 320 g/ha applied herbicide
Method in brief: as §1

barnyard grass [1] = assay: Test Example 3: herbicidal effect by foliage application, Wagner pot (Table 18, symbol H); format: in vivo, barnyard grass (Echinochloa crus-galli); settings: amount of applied herbicide 320 g/ha
Method in brief: (§2)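 Plants were sown in alluvial soil held under 0.1–0.5 cm standing water and grown 14 days in a greenhouse at 25–30 °C. An emulsifiable formulation, water-diluted to the set dose, was then sprayed onto the foliage, and effects were scored three weeks later using previously defined criteria.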

Chinese sprangletop = assay: Test Example 3: herbicidal effect by foliage application, Wagner pot (Table 18, symbol D); format: in vivo, chinese sprangletop (Leptochloa chinensis); settings: amount of applied herbicide 320 g/ha
Method in brief: as §2

rice flat sedge = assay: Test Example 3: herbicidal effect by foliage application, Wagner pot (Table 18, symbol E); format: in vivo, rice flat sedge (Cyperus iria); settings: amount of applied herbicide 320 g/ha
Method in brief: as §2

southern crabgrass [2] = assay: Test Example 4: herbicidal effect by soil treatment (Table 19, symbol F); format: in vivo, southern crabgrass (Digitaria ciliaris); settings: amount of applied herbicide 320 g/ha
Method in brief: (§3)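 Emulsion of test compound, water-diluted to predetermined amount, sprayed on soil after sowing (seed depth ~1.5 cm, sterilized diluvial soil). Greenhouse, 25–30° C. Effect graded at three weeks post-spray.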

green foxtail [3] = assay: Test Example 4: herbicidal effect by soil treatment (Table 19, symbol G); format: in vivo, green foxtail (Setaria viridis); settings: amount of applied herbicide 320 g/ha
Method in brief: as §3

barnyard grass [4] = assay: Test Example 4: herbicidal effect by soil treatment (Table 19, symbol H); format: in vivo, barnyard grass (Echinochloa crus-galli); settings: amount of applied herbicide 320 g/ha
Method in brief: as §3

wild oat [5] = assay: Test Example 4: herbicidal effect by soil treatment (Table 19, symbol I); format: in vivo, wild oat (Avena fatua); settings: amount of applied herbicide 320 g/ha
Method in brief: as §3

blackgrass [6] = assay: Test Example 4: herbicidal effect by soil treatment (Table 19, symbol J); format: in vivo, blackgrass (Alopecurus myosuroides); settings: amount of applied herbicide 320 g/ha
Method in brief: as §3

Italian ryegrass [7] = assay: Test Example 4: herbicidal effect by soil treatment (Table 19, symbol K); format: in vivo, Italian ryegrass (Lolium multiflorum); settings: amount of applied herbicide 320 g/ha
Method in brief: as §3

windgrass [8] = assay: Test Example 4: herbicidal effect by soil treatment (Table 19, symbol L); format: in vivo, windgrass (Apera spica-venti); settings: amount of applied herbicide 320 g/ha
Method in brief: as §3

velvetleaf [9] = assay: Test Example 4: herbicidal effect by soil treatment (Table 19, symbol M); format: in vivo, velvetleaf (Abutilon theophrasti); settings: amount of applied herbicide 320 g/ha
Method in brief: as §3

redroot pigweed [10] = assay: Test Example 4: herbicidal effect by soil treatment (Table 19, symbol N); format: in vivo, redroot pigweed (Amaranthus retroflexus); settings: amount of applied herbicide 320 g/ha
Method in brief: as §3

lambsquarters [11] = assay: Test Example 4: herbicidal effect by soil treatment (Table 19, symbol O); format: in vivo, lambsquarters (Chenopodium album); settings: amount of applied herbicide 320 g/ha
Method in brief: as §3

chickweed [12] = assay: Test Example 4: herbicidal effect by soil treatment (Table 19, symbol P); format: in vivo, common chickweed (Stellaria media); settings: amount of applied herbicide 320 g/ha
Method in brief: as §3

persian speedwell [13] = assay: Test Example 4: herbicidal effect by soil treatment (Table 19, symbol R); format: in vivo, Persian speedwell (Veronica persica); settings: amount of applied herbicide 320 g/ha
Method in brief: as §3

southern crabgrass [14] = assay: Test Example 5: herbicidal effect by foliage application, plastic box (Table 20, symbol F); format: in vivo, southern crabgrass (Digitaria ciliaris); settings: foliage application, 320 g/ha, evaluated three weeks after application
Method in brief: (§4)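 Post-emergence foliar test in sterilized diluvial soil. Compound applied as water-diluted emulsion at a predetermined rate to 14-day-old plants; evaluation at three weeks.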

green foxtail [15] = assay: Test Example 5: herbicidal effect by foliage application, plastic box (Table 20, symbol G); format: in vivo, green foxtail (Setaria viridis); settings: foliage application, 320 g/ha, evaluated three weeks after application
Method in brief: as §4

barnyard grass [16] = assay: Test Example 5: herbicidal effect by foliage application, plastic box (Table 20, symbol H); format: in vivo, barnyard grass (Echinochloa crus-galli); settings: foliage application, 320 g/ha, evaluated three weeks after application
Method in brief: as §4

wild oat [17] = assay: Test Example 5: herbicidal effect by foliage application, plastic box (Table 20, symbol I); format: in vivo, wild oat (Avena fatua); settings: foliage application, 320 g/ha, evaluated three weeks after application
Method in brief: as §4

blackgrass [18] = assay: Test Example 5: herbicidal effect by foliage application, plastic box (Table 20, symbol J); format: in vivo, blackgrass (Alopecurus myosuroides); settings: foliage application, 320 g/ha, evaluated three weeks after application
Method in brief: as §4

Italian ryegrass [19] = assay: Test Example 5: herbicidal effect by foliage application, plastic box (Table 20, symbol K); format: in vivo, Italian ryegrass (Lolium multiflorum); settings: foliage application, 320 g/ha, evaluated three weeks after application
Method in brief: as §4

windgrass [20] = assay: Test Example 5: herbicidal effect by foliage application, plastic box (Table 20, symbol L); format: in vivo, windgrass (Apera spica-venti); settings: foliage application, 320 g/ha, evaluated three weeks after application
Method in brief: as §4

velvetleaf [21] = assay: Test Example 5: herbicidal effect by foliage application, plastic box (Table 20, symbol M); format: in vivo, velvetleaf (Abutilon theophrasti); settings: foliage application, 320 g/ha, evaluated three weeks after application
Method in brief: as §4

redroot pigweed [22] = assay: Test Example 5: herbicidal effect by foliage application, plastic box (Table 20, symbol N); format: in vivo, redroot pigweed (Amaranthus retroflexus); settings: foliage application, 320 g/ha, evaluated three weeks after application
Method in brief: as §4

lambsquarters [23] = assay: Test Example 5: herbicidal effect by foliage application, plastic box (Table 20, symbol O); format: in vivo, lambsquarters (Chenopodium album); settings: foliage application, 320 g/ha, evaluated three weeks after application
Method in brief: as §4

chickweed [24] = assay: Test Example 5: herbicidal effect by foliage application, plastic box (Table 20, symbol P); format: in vivo, common chickweed (Stellaria media); settings: foliage application, 320 g/ha, evaluated three weeks after application
Method in brief: as §4

persian speedwell [25] = assay: Test Example 5: herbicidal effect by foliage application, plastic box (Table 20, symbol R); format: in vivo, Persian speedwell (Veronica persica); settings: foliage application, 320 g/ha, evaluated three weeks after application
Method in brief: as §4

Compound | Herbicidal effect on A: late watergrass (grade 0-5) (late watergrass) | Herbicidal effect on B: Japanese bulrush (grade 0-5) (Japanese bulrush) | Herbicidal effect on C: oval-leafed pondweed (grade 0-5) (oval-leafed pondweed) | herbicidal effect on H: barnyard grass (barnyard grass [1]) | herbicidal effect on D: Chinese sprangletop (Chinese sprangletop) | herbicidal effect on E: rice flat sedge (rice flat sedge) | F: southern crabgrass, herbicidal effect rating (southern crabgrass [2]) | G: green foxtail, herbicidal effect rating (green foxtail [3]) | H: barnyard grass, herbicidal effect rating (barnyard grass [4]) | I: wild oat, herbicidal effect rating (wild oat [5]) | J: blackgrass, herbicidal effect rating (blackgrass [6]) | K: Italian ryegrass, herbicidal effect rating (Italian ryegrass [7]) | L: windgrass, herbicidal effect rating (windgrass [8]) | M: velvetleaf, herbicidal effect rating (velvetleaf [9]) | N: redroot pigweed, herbicidal effect rating (redroot pigweed [10]) | O: lambsquarters, herbicidal effect rating (lambsquarters [11]) | P: chickweed, herbicidal effect rating (chickweed [12]) | R: persian speedwell, herbicidal effect rating (persian speedwell [13]) | herbicidal effect on F: southern crabgrass (southern crabgrass [14]) | herbicidal effect on G: green foxtail (green foxtail [15]) | further results
CCCCOc1ccc(-c2sc3ccc(Cl)cc3c2-c2c(O)c(C)nn(C)c2=O)cc1 [2-109] | 0 (Herbicidal rate of 5% or less (almost no effect)) | 3 (Herbicidal rate of 40% or more and less than 70%) | 0 (Herbicidal rate of 5% or less (almost no effect)) | 4 (Herbicidal rate of 70% or more and less than 90%) | 2 (Herbicidal rate of 20% or more and less than 40%) | 2 (Herbicidal rate of 20% or more and less than 40%) | 0 (Herbicidal rate of 5% or less (almost no effect)) | 0 (Herbicidal rate of 5% or less (almost no effect)) | 0 (Herbicidal rate of 5% or less (almost no effect)) | 0 (Herbicidal rate of 5% or less (almost no effect)) | 0 (Herbicidal rate of 5% or less (almost no effect)) | 0 (Herbicidal rate of 5% or less (almost no effect)) | 0 (Herbicidal rate of 5% or less (almost no effect)) | 1 (Herbicidal rate of 5% or more and less than 20%) | 4 (Herbicidal rate of 70% or more and less than 90%) | 2 (Herbicidal rate of 20% or more and less than 40%) | 0 (Herbicidal rate of 5% or less (almost no effect)) | 3 (Herbicidal rate of 40% or more and less than 70%) | 0 (Herbicidal rate of 5% or less (almost no effect)) | 1 (Herbicidal rate of 5% or more and less than 20%) | herbicidal effect on H: barnyard grass (barnyard grass [16]): 4 (Herbicidal rate of 70% or more and less than 90%); herbicidal effect on I: wild oat (wild oat [17]): 0 (Herbicidal rate of 5% or less (almost no effect)); herbicidal effect on J: blackgrass (blackgrass [18]): 0 (Herbicidal rate of 5% or less (almost no effect)); herbicidal effect on K: Italian ryegrass (Italian ryegrass [19]): 0 (Herbicidal rate of 5% or less (almost no effect)); herbicidal effect on L: windgrass (windgrass [20]): 0 (Herbicidal rate of 5% or less (almost no effect)); herbicidal effect on M: velvetleaf (velvetleaf [21]): 4 (Herbicidal rate of 70% or more and less than 90%); herbicidal effect on N: redroot pigweed (redroot pigweed [22]): 5 (Herbicidal rate of 90% or more (almost completely withered)); herbicidal effect on O: lambsquarters (lambsquarters [23]): 4 (Herbicidal rate of 70% or more and less than 90%); herbicidal effect on P: chickweed (chickweed [24]): 4 (Herbicidal rate of 70% or more and less than 90%); herbicidal effect on R: persian speedwell (persian speedwell [25]): 5 (Herbicidal rate of 90% or more (almost completely withered))
COc1ccccc1-c1sc2ccc(I)cc2c1-c1c(O)c(C)nn(C)c1=O [2-130] | 0 (Herbicidal rate of 5% or less (almost no effect)) | 3 (Herbicidal rate of 40% or more and less than 70%) | 0 (Herbicidal rate of 5% or less (almost no effect)) | 3 (Herbicidal rate of 40% or more and less than 70%) | 0 (Herbicidal rate of 5% or less (almost no effect)) | 4 (Herbicidal rate of 70% or more and less than 90%) | 0 (Herbicidal rate of 5% or less (almost no effect)) | 0 (Herbicidal rate of 5% or less (almost no effect)) | 0 (Herbicidal rate of 5% or less (almost no effect)) | 0 (Herbicidal rate of 5% or less (almost no effect)) | 0 (Herbicidal rate of 5% or less (almost no effect)) | 0 (Herbicidal rate of 5% or less (almost no effect)) | 0 (Herbicidal rate of 5% or less (almost no effect)) | 0 (Herbicidal rate of 5% or less (almost no effect)) | 2 (Herbicidal rate of 20% or more and less than 40%) | 3 (Herbicidal rate of 40% or more and less than 70%) | 0 (Herbicidal rate of 5% or less (almost no effect)) | 0 (Herbicidal rate of 5% or less (almost no effect)) | 0 (Herbicidal rate of 5% or less (almost no effect)) | 0 (Herbicidal rate of 5% or less (almost no effect)) | herbicidal effect on H: barnyard grass (barnyard grass [16]): 0 (Herbicidal rate of 5% or less (almost no effect)); herbicidal effect on I: wild oat (wild oat [17]): 0 (Herbicidal rate of 5% or less (almost no effect)); herbicidal effect on J: blackgrass (blackgrass [18]): 0 (Herbicidal rate of 5% or less (almost no effect)); herbicidal effect on K: Italian ryegrass (Italian ryegrass [19]): 0 (Herbicidal rate of 5% or less (almost no effect)); herbicidal effect on L: windgrass (windgrass [20]): 0 (Herbicidal rate of 5% or less (almost no effect)); herbicidal effect on M: velvetleaf (velvetleaf [21]): 3 (Herbicidal rate of 40% or more and less than 70%); herbicidal effect on N: redroot pigweed (redroot pigweed [22]): 5 (Herbicidal rate of 90% or more (almost completely withered)); herbicidal effect on O: lambsquarters (lambsquarters [23]): 2 (Herbicidal rate of 20% or more and less than 40%); herbicidal effect on P: chickweed (chickweed [24]): 5 (Herbicidal rate of 90% or more (almost completely withered)); herbicidal effect on R: persian speedwell (persian speedwell [25]): 3 (Herbicidal rate of 40% or more and less than 70%)
